Tested on: patients with postpartum depression (PPD)
Assay: Clinical trial of inhaled 5-MeO-DMT in postpartum depression (MADRS, BPRS, BIMF, PES, safety)
Method: The single-arm, open-label clinical trial will involve 15 adult female patients with clinically diagnosed postpartum depression (PPD).
The second dose (12 mg) will only be administered if: • a. […] The 6 mg dose was safe and well-tolerated according to the investigator, • c. Any psychoactive effects (PsE) of the prior dose have subsided, and • d. Pre-dose vital parameters and forced expiratory volume in one second (FEV1) are in normal range, or if outside of the normal range, are not clinically significant according to the investigator. • 3. Similarly, a third dose (18 mg) will only be administered if: • a. […] The 12 mg dose was safe and well-tolerated according to the investigator, and • c. Any PsE of the prior dose have subsided, and • d. Pre-dose vital parameters and forced expiratory volume in one second (FEV1) are in normal range, or if outside of the normal range, are not clinically significant according to the investigator.
The patients will be assessed for a peak psychedelic experience (based on a patient-scored visual analogue scale, the PE scale), sedation, and other endpoints after dosing. Follow-up visits are planned for Day 1, and Day 7 after the dosing day.
The following criteria must be met by all patients considered for clinical trial participation: • 1. Is female and in the age range between 18 and 45 years (inclusive) at screening. • 2. Has a body mass index (BMI) in the range of 18.5 and 35 kg/m^2 (inclusive) at screening. • 3. Meets the trial criteria for PPD as assessed by a trial psychiatrist or registered psychologist: • a. Diagnosis of Major Depressive Disorder without psychotic features, confirmed by the Mini-International Neuropsychiatric Interview (MINI), with peri-partum onset that began no earlier than gestation and no later than the first 4 weeks postpartum. • b. Has a Montgomery-Åsberg Depression Rating Scale (MADRS) total score of equal to or greater than 28 at screening and pre-dose on Day 0. • 6. […] Patients must have a negative pregnancy test at screening and on the pre-test day (Day −1). • 5. Is willing to delay start of other antidepressant or anxiety medication until after the end of the trial at Day 7 and agrees to keep any psychotherapy unchanged during the trial.
A potential patient who meets any of the following key exclusion criteria will be excluded from participation in this trial: • 1. Has, based on history, psychiatric assessment, and evaluation of the MINI, a current or prior diagnosis of bipolar disorder, a manic or hypomanic episode, a psychotic disorder, Major Depressive Disorder (MDD) or other mood disorder with psychotic features, obsessive compulsive disorder, post-traumatic stress disorder (PTSD), autism spectrum disorder, borderline personality disorder, schizophrenia, delusional disorder, paranoid personality disorder, schizoaffective disorder, clinically significant intellectual disability, or any other psychiatric comorbidity that renders the patient unsuitable for the trial according to the investigator's judgment. • 2. Has one or more first or second degree relatives with a current or previously diagnosed bipolar disorder, psychotic disorder or other mood disorder (including MDD) with psychotic features. • 3. Is in the judgement of a trial psychiatrist or registered psychologist, at significant risk for suicide based on history, psychiatric assessment, and evaluation of suicidal ideation and suicidal behaviour based on the Columbia-Suicide Severity Rating Scale (C-SSRS). • 4. Has taken anti-depressive medication within 14 days or 5 half-lives (whichever is longer) prior to dosing (exception: within the last 5 weeks in the case of fluoxetine). • 5.

[1] = PPD n=1, IDR 6+12 mg inhaled, 2 hr, baseline 0
[2] = PPD n=1, IDR 6+12 mg inhaled, 2 hr, baseline 3
[3] = PPD n=1, IDR 6+12 mg inhaled, 2 hr, baseline 4
[4] = PPD n=1, IDR 6+12 mg inhaled, 2 hr, baseline 5
[5] = PPD n=1, IDR 6+12 mg inhaled, Day 7, Day 0 score 5
[6] = PPD n=1, IDR 6+12 mg inhaled, Day 7, Day 0 score 6
[7] = PPD n=1, IDR 6+12 mg inhaled, Day 7 vs Day 0
[8] = PPD n=1, IDR 6+12 mg inhaled, day 1, baseline 0
[9] = PPD n=1, IDR 6+12 mg inhaled, day 1, baseline 1
[10] = PPD n=1, IDR 6+12 mg inhaled, day 1, baseline 2
[11] = PPD n=1, IDR 6+12 mg inhaled, day 1, baseline 3
[12] = PPD n=1, IDR 6+12 mg inhaled, day 1, baseline 4
[13] = PPD n=1, IDR 6+12 mg inhaled, day 1, baseline 5

Compound: COc1ccc2[nH]cc(CCN(C)C)c2c1 [5-MeO-DMT]
- tolerability of the inhalation procedure (PPD n=1): well tolerated with no inhalation-related adverse events
- MADRS remission criteria (MADRS total score equal or less than 10) (PPD n=1, IDR 6+12 mg inhaled): fulfilled
- MADRS response criteria (at least 50% improvement from baseline) (PPD n=1, IDR 6+12 mg inhaled): fulfilled
- reported adverse events (cramping left abdominal pain and headache, Day 0) (PPD n=1, IDR 6+12 mg inhaled): mild, short-lasting and resolved spontaneously
- time to clinical response after administration (PPD n=1, IDR 6+12 mg inhaled): ≤ 2 h
- durability of clinical response (PPD n=1, IDR 6+12 mg inhaled given on one day): sustained over the 7-day follow-up period
- MADRS Concentration Difficulties improvement [1]: 0
- MADRS Concentration Difficulties score [1]: 0
- MADRS Reduced appetite improvement [1]: 0
- MADRS Reduced appetite score [1]: 0
- MADRS Suicidal Thoughts improvement [1]: 0
- MADRS Suicidal Thoughts score [1]: 0
- MADRS Inability to Feel improvement [2]: 3
- MADRS Inability to Feel score [2]: 0
- MADRS Lassitude improvement [2]: 3
- MADRS Lassitude score [2]: 0
- MADRS Pessimistic Thoughts improvement [3]: 4
- MADRS Pessimistic Thoughts score [3]: 0
- MADRS Reported sadness improvement [3]: 4
- MADRS Reported sadness score [3]: 0
- MADRS Apparent sadness improvement [4]: 5
- MADRS Apparent sadness score [4]: 0
- MADRS Inner Tension improvement [4]: 5
- MADRS Inner Tension score [4]: 0
- MADRS Reduced Sleep improvement [4]: 0
- MADRS Reduced Sleep score [4]: 5
- BIMF item 18 score: Anxiety or worry often interferes with my mothering ability (PPD n=1, IDR 6+12 mg inhaled, Day 7, Day 0 score 2): 5
- BIMF item 16 score: I worry about how other people judge me (as a mother) (PPD n=1, IDR 6+12 mg inhaled, Day 7, Day 0 score 3): 5
- BIMF item 13 score: I am taking good care of my physical needs (eating, showering, etc) (PPD n=1, IDR 6+12 mg inhaled, Day 7, Day 0 score 4): 5
- BIMF item 10 score: I trust my own feelings (instincts) when it comes to taking care of my baby [5]: 6
- BIMF item 17 score: I am able to take care of my baby and my other responsibilities [5]: 5
- BIMF item 3 score: I am comfortable with the way I've chosen to feed my baby (either bottle or breast, or both) [6]: 6
- BIMF item 6 score: There are people in my life that I can trust to care for my baby when I need a break [6]: 6
- BIMF item 12 score: I am taking good care of my baby's physical needs (feedings, changing diapers, doctor's appointments) [6]: 6
- BIMF item 14 score: I make good decisions about my baby's health and well being [6]: 6
- BIMF functional domain Adjustment Δ (Day 7) [7]: 1
- BIMF functional domain Infant Care Δ (Day 7) [7]: 0
- BIMF functional domain Management Δ (Day 7) [7]: 5
- BIMF functional domain Mother-Child Interaction Δ (Day 7) [7]: 2
- BIMF functional domain Psychological Well-being Δ (Day 7) [7]: 9
- BIMF functional domain Self Care Δ (Day 7) [7]: 4
- BIMF functional domain Social Support Δ (Day 7) [7]: 1
- BIMF item 1 Δ (Day 7): I am a good mother [7]: 0
- BIMF item 2 Δ (Day 7): I feel rested [7]: 2
- BIMF item 3 Δ (Day 7): I am comfortable with the way I've chosen to feed my baby (either bottle or breast, or both) [7]: 0
- BIMF item 4 Δ (Day 7): My baby and I understand each other [7]: 0
- BIMF item 5 Δ (Day 7): I am able to relax and enjoy time with my baby [7]: 1
- BIMF item 6 Δ (Day 7): There are people in my life that I can trust to care for my baby when I need a break [7]: 0
- BIMF item 8 Δ (Day 7): I am getting enough adult interaction [7]: 0
- BIMF item 9 Δ (Day 7): I am getting enough encouragement from other people [7]: 1
- BIMF item 10 Δ (Day 7): I trust my own feelings (instincts) when it comes to taking care of my baby [7]: 1
- BIMF item 11 Δ (Day 7): I take a little time each week to do something for myself [7]: 1
- BIMF item 12 Δ (Day 7): I am taking good care of my baby's physical needs (feedings, changing diapers, doctor's appointments) [7]: 0
- BIMF item 13 Δ (Day 7): I am taking good care of my physical needs (eating, showering, etc) [7]: 1
- BIMF item 14 Δ (Day 7): I make good decisions about my baby's health and well being [7]: 0
- BIMF item 15 Δ (Day 7): My baby and I are getting into a routine [7]: 1
- BIMF item 16 Δ (Day 7): I worry about how other people judge me (as a mother) [7]: 2
- BIMF item 17 Δ (Day 7): I am able to take care of my baby and my other responsibilities [7]: 0
- BIMF item 18 Δ (Day 7): Anxiety or worry often interferes with my mothering ability [7]: 3
- BIMF item 19 Δ (Day 7): As time goes on, I am getting better at taking care of my baby [7]: 1
- BIMF item 20 Δ (Day 7): I am satisfied with the job I am doing as a new mother [7]: −1
- MADRS Concentration Difficulties improvement [8]: 0
- MADRS Concentration Difficulties score [8]: 0
- MADRS Reduced appetite improvement [8]: 0
- MADRS Reduced appetite score [8]: 0
- MADRS Suicidal Thoughts improvement [8]: 0
- MADRS Suicidal Thoughts score [8]: 0
- BPRS Blunted Affect score [9]: 1
- BPRS Blunted affect improvement [9]: 0
- BPRS Conceptual disorganization improvement [9]: 0
- BPRS Conceptual disorganization score [9]: 1
- BPRS Disorientation improvement [9]: 0
- BPRS Disorientation score [9]: 1
- BPRS Grandiosity improvement [9]: 0
- BPRS Grandiosity score [9]: 1
- BPRS Hallucinatory behaviour improvement [9]: 0
- BPRS Hallucinatory behaviour score [9]: 1
- BPRS Hostility improvement [9]: 0
- BPRS Hostility score [9]: 1
- BPRS Mannerisms and Posturing improvement [9]: 0
- BPRS Mannerisms and Posturing score [9]: 1
- BPRS Motor retardation improvement [9]: 0
- BPRS Motor retardation score [9]: 1
- BPRS Suspiciousness improvement [9]: 0
- BPRS Suspiciousness score [9]: 1
- BPRS Uncooperativeness improvement [9]: 0
- BPRS Uncooperativeness score [9]: 1
- BPRS Unusual Thought Content improvement [9]: 0
- BPRS Unusual Thought Content score [9]: 1
- BPRS Excitement improvement [10]: 1
- BPRS Excitement score [10]: 1
- MADRS Inability to Feel improvement [11]: 3
- MADRS Inability to Feel score [11]: 0
- MADRS Lassitude improvement [11]: 3
- MADRS Pessimistic Thoughts improvement [12]: 4
- MADRS Pessimistic Thoughts score [12]: 0
- MADRS Reported sadness improvement [12]: 4
- MADRS Reported sadness score [12]: 0
- BPRS Emotional Withdrawal score [13]: 1
- BPRS Emotional withdrawal improvement [13]: 4
- MADRS Apparent sadness improvement [13]: 5
- MADRS Apparent sadness score [13]: 0
- MADRS Inner Tension improvement [13]: 5
- MADRS Inner Tension score [13]: 0

— patent US20250241891A1, “TREATMENT OF ANXIETY” (GH RESEARCH IRELAND LIMITED, priority 2022, published 2025)
